These results are taken from patent US4225595A, “Piperazine phosphates and phosphonate insecticides” (priority 1979, dated 1980).

Assay [1] has as its system Cabbage Looper [Trichoplusia ni (Hubner)]. As to the kind of experiment: Cabbage Looper (CL) leaf dip assay. The assay is classed as in vivo. As to conditions: squash cotyledons, initial 0.1%. Here is the method: (§1) Screening was initiated at a maximal concentration level believed to be injurious to the insect population. The initial level should not be understood as representing a maximum at which a viable test for insecticidal activity can be conducted.
(§2) Test compounds were diluted in a 50--50 acetone-water solution. Approximately 1×1.5 inch sections of curly dock (Rumex crispus) leaves were immersed in the test solution for 2-3 seconds. After drying on a wire screen, the leaves were placed in petri dishes containing a moistened piece of filter paper. Each dish was infested with 5 secondinstar saltmarsh larvae.
(§3) Mortality of the larvae was recorded 48 hours later. A piece of synthetic media was added to the dishes containing surviving larvae. The larvae were then observed for 5 additional days for delayed effects of the test compounds. Test concentrations ranged from 0.05% down to that at which approximately 50% mortality occurs. Cabbage Looper [Trichoplusia ni (Hubner)], (CL)
The effectiveness of the compounds was tested in the same manner as for the saltmarsh caterpillar with two exceptions. Cotyledons of hyzini squash (Calabacita abobrinha, were substituted for curly dock leaves and the initial test concentration was 0.1%. Tobacco Budworm [Heliothis virescens (Fabricius)], (TBW)
(§4) A less than 50% mortality rate at the initial concentration is indicated by a "greater than" sign (>). An approximately 50% mortality rate is indicated by the initial concentration rate. Other results are the dilutions at which an LD50 was achieved.

For assay [2], the system named is Tobacco Budworm [Heliothis virescens (Fabricius)]. Conditions: leaf dip, Romaine lettuce leaves.
Protocol: Mortality of the larvae was recorded 48 hours later. A piece of synthetic media was added to the dishes containing surviving larvae. […] Test concentrations ranged from 0.05% down to that at which approximately 50% mortality occurs.
Assay [3] has as its system Saltmarsh Caterpillar [Estigmene acrea (Drury)]. As to the kind of experiment: Saltmarsh Caterpillar (SMC) leaf dip assay. Type of assay: in vivo. As to conditions: curly dock leaves, second-instar larvae, 48 hours + 5 days. Here is the method: as §1
(§5) The species was treated in the same manner as the German cockroach. The cages contained one string beam pod and 10 adult Lygus bugs. The percent mortality was recorded 48 hours later. Test concentrations ranged from 0.05% down to that at which approximately 50% mortality occurs. Saltmarsh Caterpillar [Estigmene acrea (Drury)], (SMC)--Leaf Dip Assay
as §2, §3, §4

For assay [4], the system named is Green Peach Aphid [Myzus persicae (Sulzer)]. The assay can be described thus: Green Peach Aphid (GPA) plant spray assay. The assay is classed as in vivo. Conditions: spray on infested radish plants, three days.
Text: as §1
(§6) Nasturtium plants, Tropaeolum sp., approximately five centimeters (cm) high were transplanted into sandy loam soil in three-inch clay pots. Each pot was infested with 25-50 black bean aphids of mixed ages. Twenty-four hours later the pots were sprayed to the point of run-off with 50--50 acetone-water solutions of the test compounds.
(§7) Mortality rates were recorded after the infested plants had been held in the greenhouse for three days. Test concentrations ranged from 0.05% down to that at which 50% mortality occurs. Green Peach Aphid [Myzus persicae (Sulzer)], (GPA)
(§8) The insecticidal properties were tested in the same manner as for black beam aphids with the substitution of the nasturtiums by radish plants, Rhaphanus sativus. German Cockroach [Blatella germanica (Linne)], (GR)--Direct Spray
as §4

The test system of assay [5] is German Cockroach [Blatella germanica (Linne)]. The assay can be described thus: German Cockroach (GR) direct spray, mortality 7 days later. The assay is classed as in vivo. As to conditions: one-month-old nymphs, initial 0.1%. Here is the method: as §1
(§9) Mobile insects, such as houseflies, German cockroaches, Lygus bugs, were contained for treatment in circular cardboard cages covered with cellophane on the bottom and tulle netting on the top.
as §8
(§10) Test compounds were diluted in a 50--50 acetonewater solution. Two cubic centimeters (cc) of the compound solutions were sprayed through a DeVilbiss type EGA hand spray gun into cages each containing 10 one-month-old German cockroach nymphs.
The percent mortality was recorded 7 days later. Test concentrations ranged from 0.1% down to that at which approximately 50% mortality occurs.
as §4

The test system of assay [6] is Black Bean Aphid [Aphis fabae (Scop.)]. As to the kind of experiment: Black Bean Aphid (BBA) plant spray assay, mortality after three days. The assay is classed as in vivo. As to conditions: spray on infested nasturtium plants.
Text: (§11) Screening was initiated at a maximal concentration level believed to be injurious to the insect population. The initial level should not be understood as representing a maximum at which a viable test for insecticidal activity can be conducted. […]
as §6, §7, §4

The test system of assay [7] is Lygus Bug [Lygus hesperus (Knight)]. As to the kind of experiment: Lygus Bug (LB) direct spray assay, mortality 48 hours later. The assay is classed as in vivo. Conditions: adults, initial 0.05%. Here is the method:
as §1, §9, §10
Lygus Bug [Lygus hesperus (Knight)], (LB)--Direct Spray Assay
as §5, §4

Assay [8] has as its system Two-Spotted Mite [Tetranychus urticae (Koch)]. As to the kind of experiment: Two-Spotted Mite (2SM) plant dip assay, mortality seven days later. The assay is classed as in vivo. Conditions: for LD50 2SM Adults: adult mites; for LD50 2SM Eggs: eggs (nymphs hatching after treatment).
Text: as §11
Pinto bean plants (Phaseolus vulgaris) approximately 10 cm high were transplanted into sandy loam soil in three-inch clay pots. The plants were thoroughly infested with two-spotted mites of mixed ages and sexes. Twenty-four hours after infestation the plants were inverted and dipped for 2-3 seconds in 50--50 acetone-water solutions of the test compounds.
Mortality ratings for both adult mites and nymphs hatching after treatment were taken seven days later. Test concentrations ranged from 0.05% down to that at which 50% mortality occurs.
as §4

Assay [9] relates to Housefly [Musca domestica (Linn.)]. Conditions: topical, 48 h.
Protocol: Housefly [Musca domestica (Linn.)], (HF)--Contact Residue Assay
Test compounds were diluted in acetone and aliquots were pipetted onto the bottom of 55×15 millimeter (mm) aluminum dishes. One ml of acetone containing 0.02% peanut oil was added to each dish to insure even spreading. After all solvents had evaporated the dishes were placed in cages each containing 25 one to two day old female houseflies. Each cage contained a sugar-water cotton plug for sustanence of the flies.
Mortality rates were recorded after 48 hours. Test levels ranged from 10 μ/25 .female. houseflies down to that at which approximately 50% mortality occurs.
Assay [10] has as its system Southern House Mosquito Larvae (Culex pipiens quinquefasciatus). The assay can be described thus: Southern House Mosquito larvae (M) assay, mortality 48 hours after treatment. Type of assay: in vivo. As to conditions: third-instar larvae in aqueous solution, initial 1 ppm, read-out: LD50 M. Here is the method: as §1
Tobacco budworms were tested in the same manner as the cabbage looper. Romaine lettuce (Latuca sativa) leaves provided the substrate. Southern House Mosquito Larvae (Culex pipiens quinquefasciatus), (M)
Ten third-instar larvae were placed in a six ounce wax paper cup containing 100 ml of an aqueous solution of the test compounds at a concentration of 1 ppm. The treated larvae were stored at 70° F. (21.5° C.) and mortality was recorded 48 hours after treatment. Two-Spotted Mite [Tetranychus urticae (Koch)], (2SM)
as §4

In the case of `CCOP(=S)(OCC)SCC(=O)N1CCN(C(=O)OC(C)C)CC1` [Compound 19, 1-N-isopropoxycarbo-4-N-O,O-diethylphosphorodithioylacetyl piperazine], the “LD50 CL” value in assay [1] is “> .1%”. Also, in assay [2], the “LD50 TBW” value is given as “> .1%”. In addition, the “LD50 SMC” value in assay [3] is on record as “> .05%”. The “LD50 GPA” value in [4] is reported as “.006%”. The “LD50 GR” value in assay [5] is recorded as “> .1%”. In addition, in [6], the “LD50 BBA” value was “.0006%”. The “LD50 LB” value in assay [7] is listed as “> .05%”. Besides, in assay [8], the “LD50 2SM Adults” value is “< .05%” and the “LD50 2SM Eggs” value is given as “< .05%”. In [9], the “LD50 HF” value is reported as above 10 μg/25. The LC50 in assay [10] was above 1 µg/mL.
As for `CCOP(=O)(OCC)SCC(=O)N1CCN(C(=O)OC(C)C)CC1` [Compound 20, 1-N-isopropoxycarbo-4-N-O,O-diethylphosphoromonothioylacetyl piperazine], the “LD50 CL” value in assay [1] is “> .1%”. Further, the “LD50 TBW” value in [2] is reported as “.1%”. For the same molecule, in assay [3], the “LD50 SMC” value was “> .05%”. The “LD50 GPA” value in assay [4] is “.008%”. Besides, the “LD50 GR” value in assay [5] is “> .1%”. The “LD50 BBA” value in [6] is given as “.0005%”. Also, the “LD50 LB” value in assay [7] is “> .05%”. Besides, in assay [8], the “LD50 2SM Adults” value is given as “< .05%” and the “LD50 2SM Eggs” value was “< .05%”. Also, the “LD50 HF” value in [9] is recorded as above 10 μg/25. Besides, in assay [10], the LC50 was above 1 µg/mL.
Regarding `CCOP(=O)(OCC)SCC(=O)N1CCN(C(=O)SC)CC1` [Compound 28, 1-N-methylthiocarbo-4-N-O,O-diethylphosphoromonothioylacetyl piperazine], in [1], the “LD50 CL” value is “> .1%”. The “LD50 TBW” value in assay [2] is reported as “> .1%”. Also, the “LD50 SMC” value in [3] is given as “> .05%”. Also, the “LD50 GPA” value in [4] is given as “.008%”. Also, the “LD50 GR” value in [5] is “> .1%”. In addition, in [6], the “LD50 BBA” value is “.0002%”. In assay [7], the “LD50 LB” value is listed as “> .05%”. In addition, in assay [8], the “LD50 2SM Adults” value is on record as “< .05%” and the “LD50 2SM Eggs” value is recorded as “< .05%”. For the same molecule, in assay [9], the “LD50 HF” value was above 10 μg/25. Also, the LC50 in assay [10] is above 1 µg/mL.
